These results are taken from PubChem BioAssay (NCI).

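Each compound was tested at five concentrations against cells in 96-well plates for 48 hours. GI50 is the concentration that inhibits growth by half. TGI denotes the concentration required for complete inhibition of growth.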 Where only a bound is given, the exact number is not on record here.

What all share (test): NCI tumour cell line growth inhibition, 48 h
Experiment [1] relates to HOP-92 NSCLC.
In experiment [2] the test system is IGROV1 ovarian.
Experiment [3] deals with K-562 leukemia.
Experiment [4] concerns LOX IMVI melanoma.
The subject of experiment [5] is MALME-3M melanoma.
Experiment [6] deals with MDA-MB-231 breast.
The test system of experiment [7] is NCI-H226 lung.
Experiment [8] deals with T-47D breast.
Experiment [9] deals with U251 CNS.
For experiment [10], the system named is UACC-257 melanoma.

As for `S=c1[nH]c2ccc(Br)cc2c(=S)s1`, the TGI in experiment [1] was 64.8 µM; in experiment [2] it was over 100 µM; in experiment [3], over 100 µM; in experiment [4] it was over 100 µM; in experiment [5] it was over 100 µM; in [6], 63.7 µM. In addition, the TGI in experiment [7] was over 100 µM; in [8], 73.9 µM; in experiment [9] it was 54.8 µM; in experiment [10], 69.5 µM.

`CCCCNC(=S)N/N=C/c1cccc(C)n1`: the TGI was 86.7 µM in experiment [1]; over 100 µM in experiment [2]; 44.5 µM in experiment [3]; over 100 µM in [4]; over 100 µM in experiment [5]; over 100 µM in experiment [6]. Also, the TGI in experiment [7] is 62.2 µM; in [8], over 100 µM; in experiment [9] it was over 100 µM; in experiment [10], over 100 µM.

Take `COc1ccc(S(=O)(=O)N2C(=O)CCC2C(=O)NN)cc1` (stereo not given): the TGI in experiment [1], in experiment [2], in experiment [3], in experiment [4], in experiment [5] and in [6] was over 100 µM each time. Further, the TGI in [7], in experiment [8], in [9] and in experiment [10] was over 100 µM in each case.

For `NNC1=N/C(=C\c2ccco2)C(Cl)=N1`, the TGI in experiment [1] is over 100 µM; in experiment [2], over 100 µM; in experiment [3], 42 µM; in experiment [4] it was 70.8 µM; in experiment [5], over 100 µM; in [6], over 100 µM. The TGI in experiment [7], in experiment [8], in [9] and in experiment [10] was over 100 µM throughout.

Take `O=C(O)C(SC1=NNC2(C(=O)N1)c1ccccc1-c1ccccc12)SC1=NNC2(C(=O)N1)c1ccccc1-c1ccccc12`: the TGI in [1], in experiment [2], in experiment [3], in experiment [4], in experiment [5] and in experiment [6] was over 10 µM each time. In addition, the TGI in [7], in experiment [8], in experiment [9] and in experiment [10] was over 10 µM in each case.

For the compound `COc1cc2nc(-c3cccs3)oc(=O)c2cc1OC`, the TGI in experiment [1], in experiment [2], in [3], in [4], in experiment [5] and in [6] was over 100 µM each time. Further, the TGI in experiment [7], in experiment [8], in experiment [9] and in [10] was over 100 µM each time.

As for `Cc1c(N2C(=O)C(Cl)C2c2ccc(Cl)cc2)c(=O)n(-c2ccccc2)n1C` (stereo not given), the TGI was over 100 µM in experiment [1]; over 100 µM in experiment [2]; over 100 µM in experiment [3]; 91.6 µM in [4]; over 100 µM in [5]; over 100 µM in [6]. The TGI in experiment [7] is over 100 µM; in [8], over 100 µM; in [9], over 100 µM; in experiment [10] it was 48.1 µM.

For `Cc1cc(-c2nc3ccccc3s2)ccc1NC(=O)[C@@H](N)CCCCN`, the TGI in experiment [1] is 33.3 µM; in [2], 17.2 µM; in experiment [3], over 54 µM; in experiment [4] it was 5.92 µM; in experiment [5] it was 34.8 µM; in experiment [6] it was 25.3 µM. The TGI in [7] worked out at 17.8 µM; in experiment [8], 1.14 µM; in [9] it was 9.88 µM; in experiment [10] it was 37.8 µM.

On to `Nc1nc(Cl)cc(NCC2(CO)CCC(CCc3ccccc3)C2)n1` (stereo not given), for which the TGI in [1] came to 33.4 µM; in experiment [2] it was 37 µM; in experiment [3], 41.6 µM; in experiment [4], 26.3 µM; in [5] it was 33.3 µM; in [6], 33.6 µM. Also, the TGI was 36.1 µM in experiment [7], 30.6 µM in [8], 31.1 µM in [9] and 22.6 µM in [10].

As to `COc1cc2cc(Oc3ccc(NC(=O)c4cc(C(F)(F)F)cc(C(F)(F)F)c4)cc3)c(C)nc2cc1OC`, the GI50 in [1] was 1.82 µM; in [2], 4.63 µM; in [3], 2.34 µM; in experiment [4], 47 µM; in experiment [5] it was over 50 µM; in [6] it was 2.55 µM. In addition, the GI50 in experiment [7] was 6.2 µM; in experiment [8] it was 2.24 µM; in experiment [9] it was 2.64 µM; in experiment [10], 4.07 µM. Moreover, the TGI in [1], in [2], in experiment [3], in [4], in experiment [5] and in [6] was over 50 µM in each case. Moreover, the TGI in experiment [7], in [8], in experiment [9] and in [10] was over 50 µM in each case.
